Ends that are not written are not given here.
Assays:
Type in all cases: cell-based, rat
INS-1E cells [1] = experiment: Cell counting (trypan blue) / proliferation and cluster formation; conditions: 24 h
Procedure: (§1) FIG. 7, comprising FIG. 7A through FIG. 7G, depicts the evaluation of the biological activity of HSA-28P in INS-1E cells. FIG. 7A depicts dose-response analysis of the effect of HSA-28P on the rate of insulin secretion in INS-1E cells. The INS-1E cells were grown and trypsinized as described in Methods. Subsequently, cells were mixed with the indicated concentrations of HSA-28P (red columns), non-relevant peptide nanoparticles (NRPNP, green columns), and naked nanoparticles (NP, blue columns) and were seeded in 12-well plates. After 24 h the cells were taken to a GSIS in the presence of 2.5 mM (weak color bars) or 16.7 mM (strong color bars) glucose. FIG. 7B depicts time-course analysis of the effect of HSA-28P on the rate of insulin secretion in INS-1E cells. The INS-1E cells were prepared for the experiment as described above with 1.34 μM of both HSA-28P or NRPNP, and 0.76 μg/ml of NP. After incubation for the time indicated in the graph, the cells were taken to a GSIS as described in Methods. FIG. 7C depicts the measurement of insulin content. The RIA-assay was performed for INS-1E lysates. […] INS-1E cells were treated as described in Panel D. Cells were detached by trypsin and counted as described in Methods and then were visualized with a Cells Sense Live Imaging microscope. […]
Cells were detached by trypsin and colored by Trypan blue. Only uncolored cells were counted. […]

INS-1E cells [2] = experiment: Insulin secretion of INS-1E cells after 5 h incubation with peptidomimetic agent
Procedure: FIG. 22, comprising FIG. 22A through FIG. 22C, depicts experimental results of incubation of INS1E cells with peptidomimetic agent. A peptidomimetic agent was designed to mimic neuroligin's binding site for neurexin. Monomers and dimers had no effect on insulin secretion. Multiple dimers were conjugated to PEG-2000 to simulate clustering (reagent HSA-112). Dimers were also clustered on nanoparticles (HSA-637). FIG. 22A depicts INS-1E cells were incubated for 5 h with HSA-112 (blue columns) or HSA-637 (purple) at different concentrations or with vehicle alone (black), washed, and then tested for insulin secretion at 3 mM glucose (striped columns) or at 20 mM glucose (solid columns). […] FIG. 22B depicts a time course: insulin secretion was analyzed after the number of hours indicated following a 5 h incubation with 100 μM HSA-112 (blue), 500 nM HSA-637 (purple) or vehicle alone (black). Incubations were with 3 mM glucose (striped columns) or 20 mM glucose (solid columns). FIG. 22C depicts microscopy where INS-1E cells were incubated with HSA-637 conjugated to a fluorescent dye (Cy5, red) and then washed. Membranes were stained with Alexa Fluor 488 (green). For better visualization, microscopy was in hypotonic saline causing the INS-1E cells to swell and become more rounded.

INS-1E cells [3] = experiment: Insulin content (RIA) of INS-1E lysates; conditions: 24 h
Procedure: as §1, with “glucose.” for “glucose. FIG. 7B depicts time-course analysis of the effect of HSA-28P on the rate of insulin secretion in INS-1E cells. The INS-1E cells were prepared for the experiment as described above with 1.34 μM of both HSA-28P or NRPNP, and 0.76 μg/ml of NP. After incubation for the time indicated in the graph, the cells were taken to a GSIS as described in Methods. FIG. 7C depicts the measurement of insulin content. The RIA-assay was performed for INS-1E lysates.”
The lysis buffer contained 50 mmol/L Tris-HCl, pH 7.5, 1 mmol/L EDTA, 1 mmol/L EGTA, 1 mmol/L Na3VO4, 150 mmol/L NaCl, 50 mmol/L NaF, 10 mmol/L sodium-glycerophosphate, 5 mmol/L sodium pyrophosphate, and 1 mmol/L PMSF, supplemented with 0.1% (v/v) IGEPAL, 0.1% (v/v) 2-β-mercaptoethanol, and protease inhibitor cocktail (1:100 dilution). […] Protein content in the supernatant was determined by Bradford analysis, using a BSA standard dissolved in the same buffer. […]

INS-1E cells [4] = experiment: MTT cell viability under glucose oxidase-induced oxidative stress
Procedure: as §1, with “NP.” for “NP. After incubation for the time indicated in the graph, the cells were taken to a GSIS as described in Methods. FIG. 7C depicts the measurement of insulin content. The RIA-assay was performed for INS-1E lysates.”
Briefly, cells were incubated with MTT (2 mg/mL) in growth medium for 30 min at 37° C. […] Absorbance at 570 nm was measured in a SpectraMax M5 spectrophotometer (Sunnyvale, Calif., USA). The obtained results were normalized by total protein content in culture cells, which was measured using the Bradford reagent. […]

## HSA-112: HSA-28 dimer formed by bridging two HSA-28 monomers via amide bond formation with active ester PEG2,000 (QQGEFLNYD-NH2; not fully specified (N-terminus); also: dimer of two HSA-28 monomers bridged via amide bonds with active ester PEG2000)
INS-1E cells [1]
  amount of cells / proliferation rate: higher than that in the control dishes
INS-1E cells [2]; 5 h incubation, 20 mM glucose, p<0.05
  concentration that significantly increased glucose-stimulated insulin secretion: ≥ 20 µM
INS-1E cells [2]; INS-1 β cells
  effect on insulin secretion: increased insulin secretion in a dose-dependent manner
INS-1E cells [3]
  effect on cellular / total insulin content: did not affect the cellular insulin content
INS-1E cells [4]; glucose oxidase-induced oxidative stress
  cell protective effect compared with trolox: almost identical to that of the well-known antioxidant (trolox)
INS-1E cells [4]; glucose oxidase/glucose system, 24 h
  effect on cell viability under oxidative stress: cytoprotective effect

— patent US20230079439A1, “Compositions and Methods for Enhancing Beta Cell Maturation, Health and Function” (THE REGENTS OF THE UNIVERSITY OF CALIFORNIA, priority 2016, published 2023)
